In patent publication US20050014682A1 (priority 2003, published 2005):
Like-named read-outs stand apart in the source and are kept apart here. Starred links: 1 amine or outer side, 2 acyl side, 3 side chain; linkers in the order of their positions; H or OH if unused. Positions of bridges follow the written chain, without caps; N, C: chain ends. Non-standard residues stand in square brackets, D forms with d. Residues, ends and D or L forms follow the SMILES beside them. Adda = CO[C@@H](Cc1ccccc1)[C@@H](C)/C=C(C)/C=C/[C@H](N[*:1])[C@H](C)C(=O)[*:2]; dAsp(3S-Me) = C[C@H](C(=O)[*:3])[C@@H](N[*:1])C(=O)[*:2]; d(γGlu) = O=C(O)[C@@H](CCC(=O)[*:2])N[*:1]; NMeDha = C=C(NC)C(=O)O

Experiments:
Akt = experiment: Cell-free in vitro assay (3T3-L1 adipocyte PM/CYT/LDM fractions), Akt phosphorylation by phospho-Akt immunoblot; type: biochemical; settings: for ability of phosphatidylinositol lipids to stimulate Thr308 and Ser473 phosphorylation of Akt: data not shown
PDK2 = PDK2 activity in in vitro reactions at different chloride concentrations; type: biochemical
[1] = 10 μM PIP3 added to CYT alone, non-insulin treated cells, 15 min at 37° C.
[2] = 10 μM PIP3 added to CYT and LDM, 15 min at 37° C.

Molecule: C=C1C(=O)N[C@H](C)C(=O)N[C@@H](CC(C)C)C(=O)N[C@@H](C(=O)O)[C@H](C)C(=O)N[C@@H](CCCNC(=N)N)C(=O)N[C@@H](/C=C/C(C)=C/[C@H](C)[C@H](Cc2ccccc2)OC)[C@H](C)C(=O)N[C@@H](C(=O)O)CCC(=O)N1C [Microcystin, microcystin-LR] (R[Adda][d(γGlu)][NMeDha][dA]L[dAsp(3S-Me)]-OH; lactam N-7)
- control (basal) phospho-Akt signal in reactions containing PM(−ins) (Akt): elevated the basal signal only for the Ser473 site
- signal for both Akt phosphorylation sites in reactions containing PM(+ins) (Akt): increased the insulin-stimulated signal

Molecule: Cl [chloride]
- PIP3-induced Ser473 phosphorylation (Akt): completely inhibited
- insulin-stimulated phosphorylation of both Thr308 and Ser473 (Akt; 145 mM chloride (140 mM KCl/5 mM NaCl or 145 mM NaCl), PM and CYT): almost completely suppressed
- PIP3-stimulated Thr308 phosphorylation (Akt; high chloride (145 mM), 10 μM PIP3, PM(−ins) and CYT): severely inhibited
- chloride concentration that completely inhibits PDK2 activity (PDK2): > 100 mM

Molecule: phosphatidylinositol(3,4,5)P3 [PIP3]
- Ser473 phosphorylation of Akt (Akt; [1]): occurred only marginally
- Thr308 phosphorylation of Akt (Akt; [1]): efficient phosphorylation
- Ser473 signal (Akt; [2]): robust
- Thr308 signal relative to reaction containing CYT alone (Akt; [2]): not further enhanced
- ability of phosphatidylinositol lipids to stimulate Thr308 and Ser473 phosphorylation of Akt (Akt): could stimulate

Molecule: O[C@@H](CS)[C@@H](O)CS [DTT]
- signal for both Akt phosphorylation sites in reactions containing PM(+ins) (Akt; 15 min at 37° C.): appeared to inhibit the phospho-Akt signal in most cases

Molecule: phosphatidylinositol(3,4)P2 [PI (3,4)P2]
- ability of phosphatidylinositol lipids to stimulate Thr308 and Ser473 phosphorylation of Akt (Akt): could stimulate
